Series [1] deals with T1, CYP1A2 (Homo sapiens, UniProt P05177).
T1 construct: purchased Thermo Fisher Scientific; host or cells: insect microsomal fractions
As to the kind of experiment: Vivid CYP screening kit, recombinant CYP1A2. It counts as biochemical. Conditions: recombinant enzyme. Here is the method:
(§1) CYP inhibitory assay was performed as described previously. Experiments were performed with commercial Vivid CYP screening kits containing insect microsomal fractions enriched with a specific human CYP isoform, human CYP reductase, and in some cases, human cytochrome b5. The potential inhibitory activity of ensartinib toward CYP1A2, CYP2B6, CYP2C8, CYP2C9, CYP2C19, CYP2D6, CYP3A4, and CYP3A5 (i.e., all CYP isoforms that drug regulatory authorities recommend for testing of inhibition by new molecular entities) was then examined. Experiments were performed using a kinetic mode in black 96-well plates according to the manufacturer´s instructions. Briefly, 5-point serial dilutions of ensartinib or the model inhibitor recommended by the manufacturer in buffer were transferred into the wells, then a master mix consisting of a CYP isoenzyme with an NADPH regeneration system in buffer was added. After a 10 min pre-incubation, the reaction was initiated by adding a mixture of NADP^+ and the appropriate Vivid substrate, after which fluorescence was measured at 1 min intervals for 60 min using an Infinite M200 Pro microplate reader (Tecan, Männedorf, Switzerland). The enzyme concentration and incubation interval used for data evaluation (15 min) placed the systems within the linear regions of the appropriate reaction velocity curves. […]

The target in series [2] is T2, ABCB1 (Homo sapiens, UniProt P08183).
T2 construct: expressed in transfected cells; host or cells: MDCKII-ABCB1 (from Dr. Alfred Schinkel, The Netherlands Cancer Institute)
T2 sequence (P08183 whole entry): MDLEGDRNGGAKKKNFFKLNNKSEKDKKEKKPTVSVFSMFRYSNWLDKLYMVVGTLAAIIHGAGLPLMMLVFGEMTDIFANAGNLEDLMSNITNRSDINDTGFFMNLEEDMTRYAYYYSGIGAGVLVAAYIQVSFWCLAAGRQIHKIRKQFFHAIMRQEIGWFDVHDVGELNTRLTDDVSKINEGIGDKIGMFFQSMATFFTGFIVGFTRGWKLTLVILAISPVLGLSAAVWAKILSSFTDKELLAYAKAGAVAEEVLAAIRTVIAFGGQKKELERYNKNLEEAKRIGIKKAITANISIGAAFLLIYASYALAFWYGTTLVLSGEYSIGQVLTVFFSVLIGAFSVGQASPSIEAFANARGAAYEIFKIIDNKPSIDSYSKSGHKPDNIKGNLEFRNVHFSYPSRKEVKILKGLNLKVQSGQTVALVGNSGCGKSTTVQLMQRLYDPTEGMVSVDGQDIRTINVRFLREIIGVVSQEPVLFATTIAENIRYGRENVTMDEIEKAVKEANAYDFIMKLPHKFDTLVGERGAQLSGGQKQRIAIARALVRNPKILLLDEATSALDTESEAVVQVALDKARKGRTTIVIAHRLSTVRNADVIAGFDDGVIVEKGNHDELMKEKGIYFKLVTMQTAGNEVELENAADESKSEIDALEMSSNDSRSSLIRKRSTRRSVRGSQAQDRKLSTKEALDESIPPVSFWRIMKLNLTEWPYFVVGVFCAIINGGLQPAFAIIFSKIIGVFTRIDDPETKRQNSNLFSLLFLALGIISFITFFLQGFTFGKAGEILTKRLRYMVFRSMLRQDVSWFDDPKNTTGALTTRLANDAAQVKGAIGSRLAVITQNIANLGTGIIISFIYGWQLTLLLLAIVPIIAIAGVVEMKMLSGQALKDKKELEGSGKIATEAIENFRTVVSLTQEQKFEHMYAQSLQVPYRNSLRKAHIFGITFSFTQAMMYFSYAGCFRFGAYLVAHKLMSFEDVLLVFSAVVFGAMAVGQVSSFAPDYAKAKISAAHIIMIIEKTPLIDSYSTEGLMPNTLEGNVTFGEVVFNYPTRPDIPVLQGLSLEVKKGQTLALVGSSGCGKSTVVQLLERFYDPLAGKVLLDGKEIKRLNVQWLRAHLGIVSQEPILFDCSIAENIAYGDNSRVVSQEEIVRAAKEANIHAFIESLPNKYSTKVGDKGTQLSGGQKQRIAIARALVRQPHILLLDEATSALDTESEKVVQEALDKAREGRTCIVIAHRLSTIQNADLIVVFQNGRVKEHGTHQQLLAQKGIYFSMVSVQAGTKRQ
As to the kind of experiment: MDCKII monolayer transport assay, MDCKII-ABCB1. Conditions: dog. The series is classed as in vitro ADME. The protocol:
(§2) Transport assays were performed on microporous polycarbonate membrane filters (3 µm pore size, 24 mm diameter, Transwell 3414; Costar, Corning, NY, USA) using MDCKII parental as well as ABCB1-, ABCG2-, and ABCC1-overexpressing MDCKII cells. The cells were seeded at a density of 1.5 × 10^6 cells per insert and cultured to full confluence for 7 days with media exchanges on the second and fourth days. Before the start of the transport experiments, inserts were washed with 1 × PBS on both the apical and basal sides. The cells were then preincubated in Opti-MEM with or without model inhibitors (1 µM LY335979, 1 µM Ko143, or 25 µM MK-571). […] Ensartinib levels in samples were measured by UHPLC-MS/MS (see below). […]
(§3) Samples from the monolayer transport assays (10 µL) were mixed with 100 µL of acetonitrile and 100 µL of methanol, vortexed for 15 min, and centrifuged at 14,500 rpm for 3 min. […] The MS source parameters were set to the following: drying gas, 320 °C, flow rate 10 l/min; sheath gas, 400 °C at 12 l/min; nebulizer pressure 25 psi; capillary voltage 4000 V; nozzle voltage 0 V. Transitions of [M+H]^+ ions were detected using a dwell time of 150 ms, a cell acceleration of 4 V, and fragmentor voltages of 137 V for 547→357, 257 and 120 transitions (corresponding to collision energies of 16, 32, and 56 V).

For series [3], the target named is T3, CYP2C8 (Homo sapiens, UniProt P10632).
T3 construct: purchased Thermo Fisher Scientific; host or cells: insect microsomal fractions
T3 sequence (P10632 whole entry): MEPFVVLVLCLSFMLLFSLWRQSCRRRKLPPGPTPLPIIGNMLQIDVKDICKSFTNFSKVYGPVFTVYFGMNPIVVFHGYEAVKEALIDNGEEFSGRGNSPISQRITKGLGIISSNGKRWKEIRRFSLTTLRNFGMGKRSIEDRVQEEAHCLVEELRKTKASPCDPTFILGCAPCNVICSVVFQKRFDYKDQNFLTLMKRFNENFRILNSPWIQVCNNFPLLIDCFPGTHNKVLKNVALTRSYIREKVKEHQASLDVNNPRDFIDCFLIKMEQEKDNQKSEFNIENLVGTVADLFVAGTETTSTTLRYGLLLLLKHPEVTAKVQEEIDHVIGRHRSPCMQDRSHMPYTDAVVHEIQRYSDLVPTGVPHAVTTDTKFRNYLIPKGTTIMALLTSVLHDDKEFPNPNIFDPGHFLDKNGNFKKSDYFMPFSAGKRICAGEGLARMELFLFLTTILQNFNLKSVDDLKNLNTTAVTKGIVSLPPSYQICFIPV
As to the kind of experiment: Vivid CYP screening kit, recombinant CYP2C8. It counts as biochemical. To be noted: recombinant enzyme, 15 min incubation, absolute IC50; read-out: CYP2C8 inhibition IC50. The protocol:
as §1

Series [4] has as its target T4, ABCG2 (Homo sapiens, UniProt Q9UNQ0).
T4 construct: expressed in transfected cells; host or cells: MDCKII-ABCG2 (from Dr. Alfred Schinkel, The Netherlands Cancer Institute)
T4 sequence (Q9UNQ0 1-655): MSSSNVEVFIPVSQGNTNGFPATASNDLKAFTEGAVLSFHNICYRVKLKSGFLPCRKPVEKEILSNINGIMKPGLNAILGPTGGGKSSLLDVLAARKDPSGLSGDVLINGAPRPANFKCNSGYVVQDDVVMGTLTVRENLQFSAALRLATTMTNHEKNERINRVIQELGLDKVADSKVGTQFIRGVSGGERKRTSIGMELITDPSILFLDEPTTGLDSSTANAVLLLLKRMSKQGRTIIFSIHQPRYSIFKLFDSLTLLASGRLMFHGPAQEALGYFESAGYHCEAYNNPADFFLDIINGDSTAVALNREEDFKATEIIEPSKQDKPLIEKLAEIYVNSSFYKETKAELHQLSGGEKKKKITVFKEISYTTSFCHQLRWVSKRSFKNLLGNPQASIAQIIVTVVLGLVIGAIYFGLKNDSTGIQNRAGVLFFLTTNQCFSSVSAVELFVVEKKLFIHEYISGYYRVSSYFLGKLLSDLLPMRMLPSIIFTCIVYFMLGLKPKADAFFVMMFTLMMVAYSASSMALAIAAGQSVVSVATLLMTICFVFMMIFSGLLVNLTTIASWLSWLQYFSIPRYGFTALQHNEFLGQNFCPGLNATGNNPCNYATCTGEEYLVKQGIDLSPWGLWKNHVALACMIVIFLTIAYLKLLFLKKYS
The experiment in a line: MDCKII monolayer transport assay, MDCKII-ABCG2. It counts as in vitro ADME. Conditions: dog, 1 µM ensartinib, read-out: transport ratio (r), BA/AB. The protocol: as §2, §3

Series [5] relates to MDCKII-ABCG2 cells. The experiment in a line: MTT proliferation / drug combination assay, MDCKII-ABCG2. The series is classed as cell-based, canine. The protocol:
(§4) MTT proliferation assay was performed as described previously.

Assay in series [6]: as above
To be noted: dog, MDCKII-ABCG2 cells, 48 h, MTT, read-out: IC50, sensitivity to ensartinib. It counts as cell-based, canine. The protocol:
as §4

SMILES strings stand for the structures. pIC50: −log10 of the molar value. Read-outs that look alike come from different tables or passages of the source.

A word on the pIC50: it is the negative decadic logarithm of the IC50, by convention in mol/L. For orientation: IC50 means the midpoint of a concentration-inhibition curve.

T1 sequence (P05177 2-516 limits assumed): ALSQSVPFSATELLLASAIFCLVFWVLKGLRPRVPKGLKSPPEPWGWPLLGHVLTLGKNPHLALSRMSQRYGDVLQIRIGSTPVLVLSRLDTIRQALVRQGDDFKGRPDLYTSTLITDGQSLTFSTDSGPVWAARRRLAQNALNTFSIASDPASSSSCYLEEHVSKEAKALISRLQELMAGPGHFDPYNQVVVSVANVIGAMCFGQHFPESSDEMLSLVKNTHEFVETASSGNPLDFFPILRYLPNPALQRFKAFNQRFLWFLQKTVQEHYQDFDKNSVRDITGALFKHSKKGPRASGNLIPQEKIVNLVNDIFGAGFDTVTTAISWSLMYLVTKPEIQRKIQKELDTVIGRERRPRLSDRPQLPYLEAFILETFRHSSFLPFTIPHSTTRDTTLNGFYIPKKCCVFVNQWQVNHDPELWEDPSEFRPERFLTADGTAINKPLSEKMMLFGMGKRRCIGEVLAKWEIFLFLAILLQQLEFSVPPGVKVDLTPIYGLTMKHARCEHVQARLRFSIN

As to `C[C@@H]1CN(C(=O)c2ccc(NC(=O)c3cc(O[C@H](C)c4c(Cl)ccc(F)c4Cl)c(N)nn3)cc2)C[C@H](C)N1` [ensartinib, Ensartinib], the “inhibitory effect on CYP1A2 (in words)” value in series [1] is given as “no appreciable inhibitory effect”. Also, the pIC50 in series [1] (15 min incubation, absolute IC50, read-out: CYP1A2 inhibition IC50) was under 4.30; in series [3], 4.69. Moreover, the efflux ratio at 4 h, 1 µM is 15.6 in series [2] (MDCK-MDR1, 1 µM ensartinib, read-out: transport ratio (r), BA/AB); 1.05 in series [2] (MDCK-MDR1, with LY335979, 1 µM ensartinib + 1 µM LY335979, read-out: transport ratio (r), BA/AB, with ABCB1 inhibitor); 1.15 in series [4]. In addition, the “combination effect (Chou-Talalay combination index)” value in series [5] (10 µM ensartinib with mitoxantrone) is “synergistic (synergistic (CI < 0.9))”. In addition, in series [5] (mitoxantrone, IC50 single drug / IC50 combined with 10 µM ensartinib), the “RR (reversal ratio)” value came out at 6.16. Moreover, the IC50 at 48 h in series [6] was found to be 23.3 µM.

For the origin of these results see PMC7226045, “Ensartinib (X-396) Effectively Modulates Pharmacokinetic Resistance Mediated by ABCB1 and ABCG2 Drug Efflux Transporters and CYP3A4 Biotransformation Enzyme” (Cancers, 2020).
